# Assay results reported in paper PMC10945555, “Improving Activity of New Arylurea Agents against Multidrug-Resistant and Biofilm-Producing Staphylococcus epidermidis” (ACS Medicinal Chemistry Letters, 2024).
# What was measured:
# [1] = test system: Staphylococcus epidermidis ATCC 12228; assay: MIC, broth microdilution, MSSE reference strain; assay type: cell-based; settings: ATCC12228, Staphylococcus epidermidis ATCC 12228, read-out: MIC MSSE
# Description: (§1) These strains included susceptible, multidrug-resistant, and biofilm-producing strains of S. epidermidis and S. aureus (MSSE, MDR/BPSE, and MDR/BPSA, respectively). The cornerstone antibiotic linezolid served as a positive control (Table 1). The impact of structural modifications at the aryloxy fragment and the aromatic moiety bound to the propyl linker on the inhibitory activity was initially investigated. […] Further optimization focused on evaluating the impact of the type of substituent and its position on the arylsulfonamide fragment’s activity.
# (§2) 2 Biological assay protocols
# (§3) Microbiological tests were carried out under aseptic conditions in a laminar chamber of the 2nd […]
# (§4) (BioTectum 1.2, Alchem Poland). The assessment of antimicrobial activity was carried out for final compounds in the form of free bases, soluble in DMSO (Merck, Germany), at the initial […]
# (§5) concentration of 1 mg/mL. […]
# (§6) were provided by Cayman Chemical, USA.
# (§7) The activity of all newly synthesized compounds was tested in vitro on a panel of selected reference strains from the American Type Culture Collection (ATCC) of Gram-positive […]
# (§8) 2.2 Effect of evaluated compounds on planktonic cells
# (§9) The susceptibility of three reference bacterial strains (Staphylococcus epidermidis ATCC […]
# (§10) Table S1) and 81 clinical MDR S. epidermidis (Table S2) to the tested compounds was assessed by determining the MIC value (Minimal Inhibitory Concentration) by microdilution in a liquid medium in 96-well flat-bottom cell culture plates (Nest Biotechnology Scientific, USA). The antibacterial properties of the compo unds were tested in the concentration range from 50 µg/mL to 0.1 µg/mL by making a series of double dilutions of the compound in liquid Mueller -Hinton II Broth Cation Adjusted (MHB II, BBL TM, USA) according to the European Committee on […]
# (§11) Antimicrobial Susceptibility Testing guidelines (EUCAST).2,3 The determinations were performed twice. The MIC50 and MIC90 values were determined for each of the tested
# [2] = test system: Staphylococcus epidermidis ATCC 35984; assay: MIC, broth microdilution, MDR/BPSE reference strain; assay type: cell-based; settings: for MIC: Staphylococcus epidermidis, ATCC35984, read-out: MIC MDR/BPSE, Staphylococcus epidermidis ATCC 35984
# Description: as §1, §2, §3, §4, §5, §6, §7, §8, §9, §10, §11
# H9c2 cells = assay: Cytotoxicity, MTT assay, cardiomyocytes; assay type: cell-based; settings: Rattus norvegicus, 24 h, n = 3
# Experimental: (§12) The following cell models were used in the research: rat cardiomyocytes (H9c2 line) and human skin fibroblasts (BJ line). All cell lines used in the work are commercially available and were purchased from ATCC banks (the American Type Culture Collection, Manassas, VI, USA). Cell cultures were carried out in an incubator under standard conditions (37°C, 5% CO 2).
# (§13) Culture media (Dulbecco's Modified Eagle's Medium -DMEM (H9c2) and Eagle's Minimum Essential Medium-EMEM (BJ) were supplemented with 10% bovine serum and a 1% mixture of penicillin and streptomycin antibiotics. […]
# (§14) doxorubicin (a cytotoxic drug) were used as reference and positive control, respectively. […]
# (§15) incubated with studied compound in appropriate concentration for next 24 h. Then MTT solution (5 mg/mL) was transferred into culture medium of incubated cells. After 3 h, once dark crystals of formazan were produced in cells, medium was aspirated and 100 μ L of DMSO was added to dissolve formazan. Absorbance of DMSO solution was read on a multiwell plate reader (Spectra Max iD3, Molecular Devices) at 570 nm. In order to determine viability, absorbance of experimental wells was divided by absorbance of contro l well (not treated) and multiplied by 100 (%). Three separate experiments were performed. IC 50 was calculated using non-linear regression method in OriginPro software. […]
# BJ cells = assay: Cytotoxicity, MTT assay, skin fibroblasts; assay type: cell-based, human; settings: for IC50: Homo sapiens, MTT, 24 h, n = 3
# Experimental: as §12, §13, §14
# as §15, with “solution” for “incubated with studied compound in appropriate concentration for next 24 h. Then MTT solution”
# [3] = test system: biofilm-producing Staphylococcus epidermidis strains; assay: Inhibition of biofilm formation (MBIC, resazurin); assay type: cell-based
# Experimental: After 24 hours incubation each well of
# concentration of 4 mg/mL was added. […]
# [4] = S. epidermidis ATCC 35984 (Table S4)
# [5] = clinical strain 25 (Table S4, Figure 2)
smiles,measurement,setting,value
O=S(=O)(NC1CCN(CCC(Oc2ccc(C(F)(F)F)cc2)c2ccccc2)CC1)c1cccc(Cl)c1 (stereo not drawn) [Compound 12],MIC,[1],≤ 6.25 µg/mL
same,increase of activity against MDR/BPSE compared to hit I,[2],up to 8 fold
same,MIC,[2],≤ 0.8 µg/mL
same,IC50,H9c2 cells,14.2 µg/mL
same,IC50,BJ cells,7.4 µg/mL
same,MBIC,[3]; [4],31.25 µg/mL
same,MBIC50,[3]; Table S4 strains,125 µg/mL
same,MBIC,[3]; clinical strain 1 (Table S4),125 µg/mL
same,MBIC,[3]; clinical strain 2 (Table S4),125 µg/mL
same,MBIC,[3]; clinical strain 3 (Table S4),125 µg/mL
same,MBIC,[3]; clinical strain 4 (Table S4),125 µg/mL
same,MBIC,[3]; clinical strain 5 (Table S4),62.5 µg/mL
same,MBIC,[3]; clinical strain 6 (Table S4),125 µg/mL
same,MBIC,[3]; clinical strain 7 (Table S4),125 µg/mL
same,MBIC,[3]; clinical strain 8 (Table S4),15.6 µg/mL
same,MBIC,[3]; clinical strain 9 (Table S4),125 µg/mL
same,MBIC,[3]; clinical strain 11 (Table S4),125 µg/mL
same,MBIC,[3]; clinical strain 12 (Table S4),125 µg/mL
same,MBIC,[3]; clinical strain 13 (Table S4),62.5 µg/mL
same,MBIC,[3]; clinical strain 15 (Table S4),125 µg/mL
same,MBIC,[3]; clinical strain 16 (Table S4),62.5 µg/mL
same,MBIC,[3]; clinical strain 17 (Table S4),62.5 µg/mL
same,MBIC,[3]; clinical strain 19 (Table S4),31.25 µg/mL
same,MBIC,[3]; clinical strain 21 (Table S4),125 µg/mL
same,MBIC,[3]; clinical strain 22 (Table S4),125 µg/mL
same,MBIC,[3]; clinical strain 23 (Table S4),31.25 µg/mL
same,MBIC,[3]; [5],31.25 µg/mL
same,MBIC,[3]; clinical strain 26 (Table S4),125 µg/mL
same,MBIC,[3]; clinical strain 27 (Table S4),250 µg/mL
same,MBIC,[3]; clinical strain 28 (Table S4),62.5 µg/mL
same,MBIC,[3]; clinical strain 29 (Table S4),62.5 µg/mL
same,MBIC,[3]; clinical strain 30 (Table S4),62.5 µg/mL
same,MBIC,[3]; clinical strain 33 (Table S4),125 µg/mL
same,MBIC,[3]; clinical strain 35 (Table S4),125 µg/mL
same,MBIC,[3]; clinical strain 36 (Table S4),62.5 µg/mL
same,MBIC,[3]; clinical strain 37 (Table S4),125 µg/mL
same,MBIC,[3]; clinical strain 39 (Table S4),31.25 µg/mL
same,MBIC,[3]; clinical strain 40 (Table S4),125 µg/mL
same,MBIC,[3]; clinical strain 41 (Table S4),125 µg/mL
same,MBIC,[3]; clinical strain 42 (Table S4),125 µg/mL
same,MBIC,[3]; clinical strain 43 (Table S4),250 µg/mL
same,MBIC,[3]; clinical strain 44 (Table S4),31.25 µg/mL
same,MBIC,[3]; clinical strain 45 (Table S4),125 µg/mL
same,MBIC,[3]; clinical strain 46 (Table S4),125 µg/mL
same,MBIC,[3]; clinical strain 47 (Table S4),62.5 µg/mL
same,MBIC,[3]; clinical strain 49 (Table S4),31.25 µg/mL
same,MBIC,[3]; clinical strain 51 (Table S4),125 µg/mL
same,MBIC,[3]; clinical strain 55 (Table S4),125 µg/mL
same,MBIC,[3]; clinical strain 58 (Table S4),125 µg/mL
same,MBIC,[3]; clinical strain 59 (Table S4),125 µg/mL
same,MBIC,[3]; clinical strain 65 (Table S4),125 µg/mL
same,MBIC,[3]; clinical strain 66 (Table S4),125 µg/mL
same,MBIC,[3]; clinical strain 67 (Table S4),125 µg/mL
same,MBIC,[3]; clinical strain 70 (Table S4),125 µg/mL
same,MBIC,[3]; clinical strain 73 (Table S4),31.25 µg/mL
same,MBIC,[3]; clinical strain 74 (Table S4),125 µg/mL
same,MBIC,[3]; clinical strain 75 (Table S4),31.25 µg/mL
same,MBIC,[3]; clinical strain 78 (Table S4),31.25 µg/mL
same,MBIC,[3]; clinical strain 79 (Table S4),31.25 µg/mL
O=C(Nc1cccc(Cl)c1)NC1CCN(CCC(Oc2ccc(C(F)(F)F)cc2)c2cccs2)CC1 (stereo not drawn) [Compound 25],MIC,[2],≤ 0.8 µg/mL
same,IC50,H9c2 cells,26.9 µg/mL
same,visible change in the appearance of the cells,"BJ cells; 18 hours, sector F 25 µM, G 50 µM, tested 2.5-50 µM",visible in sector F and G
same,IC50,BJ cells,13.2 µg/mL
same,MBIC,[3]; [4],7.8 µg/mL
same,MBIC50,[3]; Table S4 strains,15.6 µg/mL
same,MBIC90,[3]; Table S4 strains,31.25 µg/mL
same,MBIC,[3]; clinical strain 1 (Table S4),15.6 µg/mL
same,MBIC,[3]; clinical strain 2 (Table S4),31.25 µg/mL
same,MBIC,[3]; clinical strain 3 (Table S4),31.25 µg/mL
same,MBIC,[3]; clinical strain 4 (Table S4),31.25 µg/mL
same,MBIC,[3]; clinical strain 5 (Table S4),15.6 µg/mL
same,MBIC,[3]; clinical strain 6 (Table S4),15.6 µg/mL
same,MBIC,[3]; clinical strain 8 (Table S4),3.9 µg/mL
same,MBIC,[3]; clinical strain 9 (Table S4),31.25 µg/mL
same,MBIC,[3]; clinical strain 11 (Table S4),31.25 µg/mL
same,MBIC,[3]; clinical strain 12 (Table S4),31.25 µg/mL
same,MBIC,[3]; clinical strain 13 (Table S4),1.6 µg/mL
same,MBIC,[3]; clinical strain 15 (Table S4),31.25 µg/mL
same,MBIC,[3]; clinical strain 16 (Table S4),15.6 µg/mL
same,MBIC,[3]; clinical strain 17 (Table S4),15.6 µg/mL
same,MBIC,[3]; clinical strain 19 (Table S4),15.6 µg/mL
same,MBIC,[3]; clinical strain 21 (Table S4),31.25 µg/mL
same,MBIC,[3]; clinical strain 22 (Table S4),31.25 µg/mL
same,MBIC,[3]; clinical strain 23 (Table S4),3.9 µg/mL
same,MBIC,[3]; [5],7.8 µg/mL
same,MBIC,[3]; clinical strain 26 (Table S4),31.25 µg/mL
same,MBIC,[3]; clinical strain 27 (Table S4),31.25 µg/mL
same,MBIC,[3]; clinical strain 28 (Table S4),15.6 µg/mL
same,MBIC,[3]; clinical strain 29 (Table S4),15.6 µg/mL
same,MBIC,[3]; clinical strain 30 (Table S4),1.6 µg/mL
same,MBIC,[3]; clinical strain 33 (Table S4),31.25 µg/mL
same,MBIC,[3]; clinical strain 35 (Table S4),31.25 µg/mL
same,MBIC,[3]; clinical strain 36 (Table S4),15.6 µg/mL
same,MBIC,[3]; clinical strain 37 (Table S4),31.25 µg/mL
same,MBIC,[3]; clinical strain 39 (Table S4),1.6 µg/mL
same,MBIC,[3]; clinical strain 40 (Table S4),15.6 µg/mL
same,MBIC,[3]; clinical strain 41 (Table S4),31.25 µg/mL
same,MBIC,[3]; clinical strain 42 (Table S4),31.25 µg/mL
same,MBIC,[3]; clinical strain 43 (Table S4),15.6 µg/mL
same,MBIC,[3]; clinical strain 44 (Table S4),15.6 µg/mL
same,MBIC,[3]; clinical strain 45 (Table S4),31.25 µg/mL
same,MBIC,[3]; clinical strain 46 (Table S4),31.25 µg/mL
same,MBIC,[3]; clinical strain 47 (Table S4),15.6 µg/mL
same,MBIC,[3]; clinical strain 49 (Table S4),15.6 µg/mL
same,MBIC,[3]; clinical strain 51 (Table S4),31.25 µg/mL
same,MBIC,[3]; clinical strain 55 (Table S4),31.25 µg/mL
same,MBIC,[3]; clinical strain 58 (Table S4),31.25 µg/mL
same,MBIC,[3]; clinical strain 59 (Table S4),31.25 µg/mL
same,MBIC,[3]; clinical strain 65 (Table S4),31.25 µg/mL
same,MBIC,[3]; clinical strain 66 (Table S4),15.6 µg/mL
same,MBIC,[3]; clinical strain 67 (Table S4),31.25 µg/mL
same,MBIC,[3]; clinical strain 70 (Table S4),31.25 µg/mL
same,MBIC,[3]; clinical strain 73 (Table S4),7.8 µg/mL
same,MBIC,[3]; clinical strain 74 (Table S4),15.6 µg/mL
same,MBIC,[3]; clinical strain 75 (Table S4),15.6 µg/mL
same,MBIC,[3]; clinical strain 78 (Table S4),7.8 µg/mL
same,MBIC,[3]; clinical strain 79 (Table S4),7.8 µg/mL
